Results from patent US20050004044A1, “Use of orsaponin [3beta, 16beta, 17 alpha-trihydroxycholost-5-en-22-one 16-0-(2-0-4-methoxybenzoyl-beta-D-xylopyranosyl)-(1->3)-(2-0-acetyl-alpha-L-arabinopyranoside)] or OSW-1 and its derivatives for cancer therapeutics” (priority 2003, published 2005).

Legend:
[1] = test system: pancreatic cancer (Panco-2) cells; test: MTT cell growth inhibition, Panco-2; format: cell-based; conditions: Mus musculus, Panco-2, 72 h
Description: (§1) 1. MTT Assays. For these assays either cancer cell lines were used. Alternatively, mononuclear cells from peripheral blood samples of CLL patients or normal donors were separated by Ficoll Hipaque fractionation and resuspended in DMEM complete medium. Malignant cells from various human cell lines (usually at 5×10^4 cells/ml) or mononuclear cells from peripheral blood of leukemia patients and healthy donors (1×10^6 cells/ml) were incubated in either αMEM or RPMI 1640 with or without various concentrations of OSW-1 in the range of 0-10 nM. Each experimental condition was done in triplicate. After the indicated number of days (usually 3 days or 72 hours) of exposure to OSW-1, cell survival was assessed by the addition of the MTT dye to the wells. The MTT dye changes its color depending on the presence of live cells in the well. Survival of cells under orsaponin treatment was evaluated as a percentage of control cell growth. Alternatively, one can also use the dye trypan-blue which penetrates dead cells thereby allowing one to count live cells under the microscope and estimating percentage survival.
(§2) The effect of Orsaponin and 17-deoxyorsaponin in pancreatic cancer cells was also assessed. […] Cell growth inhibition was measured by MTT assay.

[2] = test system: primary CLL cells; test: cells; format: cell-based; conditions: Homo sapiens, CLL cell, CLL cells, median of 11 patient samples; read-out: IC50 (nM), Median
Description: FIG. 7. Effect of Orsaponin (OSW-1) on cell survival in primary human leukemia cells isolated from patients with chronic lymphocytic leukemia (CLL). Freshly isolated primary CLL cells were incubated with the indicated concentrations of OSW-1 for 72 hours in vitro. Cell viability was measured by MTT assay. […] Data from representative experiments with CLL cells from three different patients are shown. A total of 23 CLL blood samples were tested for sensitivity to OSW-1 in the same fashion.
as §1
Reduction of Cell Viability in CLL-Patient-Derived Cells. […] Freshly isolated primary CLL cells were incubated with the 0-100 nM OSW-1 for 72 hours in vitro and cell viability was measured by the MTT assay.
Cytotoxic activity of 17-deoxyorsaponin was also assessed in a number of patient samples. Primary human leukemia cells isolated from 11 patients with chronic lymphocytic leukemia (CLL) were analyzed for cytotoxic activity of 17-deoxyorsaponin. […]

[3] = test system: ovarian cancer SKOV3 cells; test: MTT cell growth inhibition, SKOV3; format: cell-based; conditions: Homo sapiens, SK-OV-3, SKOV3, 72 h
Description: FIG. 5. Effect of Orsaponin (OSW-1) on cell growth in human ovarian cancer cells (SKOV3). Human ovarian cancer SKOV3 cells were treated with the indicated concentrations of OSW-1 for 72 h. Cell growth inhibition was measured by the MTT assay. The IC50 value is approximately 0.2 nM under the experimental conditions.
1. MTT Assays. For these assays either cancer cell lines were used. Alternatively, mononuclear cells from peripheral blood samples of CLL patients or normal donors were separated by Ficoll Hipaque fractionation and resuspended in DMEM complete medium. […] After the indicated number of days (usually 3 days or 72 hours) of exposure to OSW-1, cell survival was assessed by the addition of the MTT dye to the wells. […] Survival of cells under orsaponin treatment was evaluated as a percentage of control cell growth. […]
OSW-1 Inhibits Growth of Ovarian Cancer Cells. […] Human ovarian cancer SKOV3 cells were treated with 0-10 nM OSW-1 for 72 h and cell growth inhibition was measured by the MTT assay.
The effect of 17-deoxyorsaponin in human ovarian cancer cells was determined. […] Cell growth inhibition was measured by MTT assay (FIG. 17). […] ML-1 leukemia cells were incubated with various concentrations of 17-deoxyorsaponin for 72 h and cell growth inhibition was measured using the MTT assay (FIG. 18).

[4] = test system: ML-1 leukemia cells; test: MTT cell growth inhibition, ML-1; format: cell-based, human; conditions: ML-1, 72 h
Description: as §1
(§3) Anticancer activities of Orsaponin and 17-deoxyorsaponin were examined in human leukemia cells (ML-1) and human lymphoma cells (Raji). Cells were incubated with various concentrations of Orsaponin and 17-deoxyorsaponin for 72 h, and cell growth inhibition was measured by MTT assay.
The effect of 17-deoxyorsaponin in human ovarian cancer cells was determined. SKOV3 ovarian cancer cells were incubated with various concentrations of 17-deoxyorsaponin for 72 h. Cell growth inhibition was measured by MTT assay (FIG. 17). […] The effect of 17-deoxyorsaponin in human acute myeloid leukemia cells was also examined. ML-1 leukemia cells were incubated with various concentrations of 17-deoxyorsaponin for 72 h and cell growth inhibition was measured using the MTT assay (FIG. 18).

[5] = test system: Raji cells (lymphoma); test: MTT cell growth inhibition, Raji; format: cell-based, human; conditions: Homo sapiens, 72 h
Description: FIG. 2. Effect of Orsaponin (OSW-1) on cell growth in two human cancer cell lines including a leukemia and a lymphoma cell line. HL-60 (leukemia) and Raji cells (lymphoma) in exponentially growing phase were treated with the indicated concentrations of OSW-1 for 72 hours. Cell growth inhibition was measured by MTT assay.
(§4) Cells and Cell Lines. Various cancer cell lines were used including the human leukemia cell lines HL-60 and ML-1 cells; human lymphoma cell line Raji; human pancreatic cancer cells AsPC-1; and human ovarian cancer cells SKOV3; human colon cancer cells HCT116; as well as isolated CLL cells from patients; and lymphocytes from normal donors. Cells were grown and maintained as per protocols known in the art using appropriate cell culture media and supplements.
1. MTT Assays. For these assays either cancer cell lines were used. […] After the indicated number of days (usually 3 days or 72 hours) of exposure to OSW-1, cell survival was assessed by the addition of the MTT dye to the wells. […] Survival of cells under orsaponin treatment was evaluated as a percentage of control cell growth. […]
as §3

[6] = test system: HCT116 p53−/− colon cancer cells; test: MTT cell growth inhibition, HCT116 p53−/−; format: cell-based; conditions: Homo sapiens, HCT-116, 72 h
Description: as §1
(§5) Anticancer activity of 17-deoxyorsaponin in human colon cancer cells was examined. HCT116 p53+/+ and HCT116 p53−/− human colon cancer cells were incubated with the various concentrations of 17-deoxyorsaponin for 72 h. Cell growth inhibition was measured by MTT assay.

[7] = test system: HCT116 p53+/+ colon cancer cells; test: MTT cell growth inhibition, HCT116 p53+/+; format: cell-based; conditions: Homo sapiens, HCT-116, 72 h
Description: as §1, §5

[8] = test system: malignant glioma U87-MG cells; test: MTT cell growth inhibition, U87-MG glioma; format: cell-based, human; conditions: U87-MG vs normal human astrocytes
Description: as §1
To test the therapeutic selectivity of Orsaponin and 17-deoxyorsaponin, their effect on human brain tumor cells (U87 malignant glioma) and normal human astrocytes were compared. The normal human astrocytes were previously immortalized by transfection with hTER to allow a long-term culture in vitro. The antiproliferative effect of Orsaponin in human malignant glioma cells (U87-MG) and normal human astrocytes was examined. Cells were incubated with various concentrations of Orsaponin for 72 h. Cell growth inhibition was measured by MTT assay (FIG. 21).

[9] = test system: pancreatic cancer AsPC-1 cells; test: MTT cell growth inhibition, AsPC-1; format: cell-based, human; conditions: Homo sapiens, ASPC1, 72 h, AsPC-1, 72 h
Description: FIG. 3. Effect of Orsaponin (OSW-1) on cell growth in human pancreatic cancer cells. Human pancreatic cancer AsPC-1 cells were treated with the indicated concentrations of OSW-1 for 72 h or 96 h. Cell growth inhibition was measured by MTT assay.
FIG. 4. The anticancer activity of Orsaponin (OSW-1) is not affected by NFκB expression in pancreatic cancer cells. Human pancreatic cancer cells AsPC-1 with constitutive activation of NFκB or inactivation of NFκB by dominant negative IκBα (AsPC-1/IκBα-ND) were treated with the indicated concentrations of OSW-1 for 72 h. Cell growth inhibition was measured by MTT assay.
as §4, with “Cells were grown and maintained as per protocols known in the art using appropriate cell culture media and supplements.” left out
1. […] After the indicated number of days (usually 3 days or 72 hours) of exposure to OSW-1, cell survival was assessed by the addition of the MTT dye to the wells. […] Survival of cells under orsaponin treatment was evaluated as a percentage of control cell growth. […]
as §2

## COc1ccc(C(=O)OC2C(OC3C(O)COC(O[C@H]4C[C@H]5[C@@H]6CC=C7C[C@@H](O)CC[C@]7(C)[C@H]6CC[C@]5(C)[C@H]4[C@H](C)C(=O)CCC(C)C)C3OC(C)=O)OCC(O)C2O)cc1 (stereo partly shown) [17-deoxyorsaponin]
[1]
  IC50: 100 pM
[2]
  IC50: 0.37 nM
[3]
  IC50: ~100 pM
[4]; Homo sapiens, 72 h
  IC50: < 100 pM
[4]
  IC50: ~200 pM
[5]
  IC50: < 100 pM
[6]
  IC50: ~1000 pM
[7]
  IC50: ~1000 pM
[8]
  sensitivity of glioma cells compared with normal astrocytes: more sensitive
[9]
  IC50: 1000 pM
